According to patent US11234988B2, “Fluorohydroxyproline derivatives useful in the preparation of proteolysis targeted chimeras” (UNIVERSITY OF DUNDEE, priority 2016, dated 2022):

What was measured:
VBC complex = VBC complex (Homo sapiens, UniProt P40337); assay: Isothermal titration calorimetry (ITC) of VHL ligands against VBC; format: binding; settings: FIG. 3
Experimental: ITC Data on the Binding of VHL Ligands 14b and 14d
Titrations were performed on an ITC200 micro-calorimeter (GE Healthcare). Compounds 14b and 14d were diluted from a DMSO stock solution to 0.6 mM in a 20 mM HEPES, 150 mM NaCl, 1 mM TCEP (pH 7) buffer. The compound was titrated against 60 μM VBC complex, equilibrated in the same buffer. Total amount of DMSO in the buffer was 3%. The data were fitted to a single binding site model to obtain the stoichiometry n, the dissociation constant Kd and the enthalpy of binding ΔH using the Microcal LLC ITC200 Origin software provided by the manufacturer.

VHL = VHL (Homo sapiens, UniProt P40337); settings: as reported in Galdeano et al. 2014 and Zengerle et al. 2015; cited from earlier work
VHL, sequence (P40337 54-213 limits assumed): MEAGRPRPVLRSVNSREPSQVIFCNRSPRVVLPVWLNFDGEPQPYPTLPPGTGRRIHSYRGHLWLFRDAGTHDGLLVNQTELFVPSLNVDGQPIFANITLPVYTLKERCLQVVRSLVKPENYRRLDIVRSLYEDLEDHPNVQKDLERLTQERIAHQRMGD
VHL, sequence (Q15370 1-104 partner limits assumed): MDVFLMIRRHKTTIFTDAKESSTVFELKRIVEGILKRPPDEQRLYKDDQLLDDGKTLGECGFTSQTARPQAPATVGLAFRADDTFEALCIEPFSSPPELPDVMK
VHL, sequence (Q15369 17-112 partner limits assumed): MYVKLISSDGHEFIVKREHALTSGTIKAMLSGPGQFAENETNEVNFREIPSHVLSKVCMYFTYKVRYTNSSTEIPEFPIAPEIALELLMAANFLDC

BRD4 = settings: Zengerle et al. 2015; cited from earlier work

VBC complex, sequence (P40337 54-213 limits assumed): as the sequence (P40337 54-213 limits assumed) above
VBC complex, sequence (Q15370 1-104 partner limits assumed): as the sequence (Q15370 1-104 partner limits assumed) above
VBC complex, sequence (Q15369 17-112 partner limits assumed): as the sequence (Q15369 17-112 partner limits assumed) above

Kd (VBC complex) [nM]	ΔH (VBC complex) [cal/mol]	ΔS (VBC complex) [cal/mol/deg]	SMILES	binding to VHL (VHL)	removal of BRD4 over BRD2 and BRD3 (BRD4)
235	-6566	8.30	CC(=O)N[C@H](C(=O)N1C[C@H](O)[C@@H](F)[C@H]1C(=O)NCc1ccc(-c2scnc2C)cc1)C(C)(C)C [Compound 14d]	–	–
235	-6566	8.30	CC(=O)N[C@H](C(=O)N1C[C@H](O)[C@H](F)[C@H]1C(=O)NCc1ccc(-c2scnc2C)cc1)C(C)(C)C [Compound 14b]	–	–
–	–	–	Cc1ncsc1-c1ccc(CNC(=O)[C@@H]2C[C@H](O)CN2C(=O)[C@@H](NC(=O)COCCOCCOCCNC(=O)C[C@@H]2N=C(c3ccc(Cl)cc3)c3c(sc(C)c3C)-n3c(C)nnc32)C(C)(C)C)cc1 [cisMZ1, (2S,4S)-1-((S)-2-(tert-butyl)-17-((S)-4-(4-chlorophenyl)-2,3,9-trimethyl-6H-thieno[3,2-f][1,2,4]triazolo[4,3-a][1,4]diazepin-6-yl)-4,16-dioxo-6,9,12-trioxa-3,15-diazaheptadecanoyl)-4-hydroxy-N-(4-(4-methylthiazol-5-yl)benzyl)pyrrolidine-2-carboxamide]	did not exhibit any measureable binding affinity for VHL	–
–	–	–	Cc1ncsc1-c1ccc(CNC(=O)[C@@H]2C[C@@H](O)CN2C(=O)[C@@H](NC(=O)COCCOCCOCCNC(=O)C[C@@H]2N=C(c3ccc(Cl)cc3)c3c(sc(C)c3C)-n3c(C)nnc32)C(C)(C)C)cc1 [MZ1, (2S,4R)-1-((S)-2-(tert-butyl)-17-((S)-4-(4-chlorophenyl)-2,3,9-trimethyl-6H-thieno[3,2-f][1,2,4]triazolo[4,3-a][1,4]diazepin-6-yl)-4,16-dioxo-6,9,12-trioxa-3,15-diazaheptadecanoyl)-4-hydroxy-N-(4-(4-methylthiazol-5-yl)benzyl)pyrrolidine-2-carboxamide]	found to bind VHL	potently and rapidly induce reversible, long-lasting and unexpectedly selective removal of BRD4 over BRD2 and BRD3
